In US7345056B2, “Bridged N-cyclic sulfonamido inhibitors of gamma secretase” (Elan Pharmaceuticals, Inc., priority 2005, dated 2008):

Target: T1, gamma-secretase (partially purified extract of IMR-32 cell membranes) (Homo sapiens, UniProt P49768)
T1 construct: a partially purified extract of IMR-32 cell membranes as the gamma-secretase enzyme preparation; endogenous in cells; host or cells: IMR-32 cell membranes, partially purified extract
Experiment: Gamma-secretase APP enzyme assay (cleavage of MBP-C125 Swe at the Aβ40 site, sandwich ELISA)
Type: biochemical
Settings: MBP-C125swe substrate, IMR-32 membrane extract, 2 h at 37° C., Aβ40 site cleavage product by ELISA; read-out: γAPP (inhibition, IC50)
From the text: The gamma-secretase APP enzyme assay was designed to measure the specific proteolytic cleavage of an APP substrate (MBP-C125 Swe fusion protein) at the Aβ40 site. […] This assay involved two steps beginning with the enzymatic reaction generating a cleavage product that was captured with an immobilized antibody specific for the neo-epitope Aβ40 site. The captured cleavage product was then detected in a sandwich ELISA assay with a biotinylated reporter antibody that is specific to Aβ (17-28). Streptavidin-linked alkaline phosphatase was then added that would generate a fluorescent signal proportional to the amount of cleavage product.
This warmed solution of BigCHAPS(N,N-Bis(3-D-gluconamidopropyl)cholamide) detergent was used to dissolve Brain Extract Type-V (lipid containing a minimum of 40% phosphatidylethanolamine) from Sigma (St. Louis, Mo.) to a concentration of 8 mg/ml. This solution containing BigCHAPS and lipid at 8 mg/ml is then diluted to 0.53 mg/ml lipid with a pre-warmed solution of Hepes and sodium chloride. This final solution containing Hepes buffer, sodium chloride, BigCHAPS detergent and lipid is used to create working solutions of both gamma-secretase (25 Units) and the MBP-C125 substrate (0.05 mg/ml).
Gamma-secretase was then added to a 96-well micro-titre plate and then incubated with various concentrations of inhibitor for 30 minutes at 37° C. MBPC125 substrate was then added to initiate the reaction that would run for two hours at 37° C. The reaction was quenched with the addition of SDS to a final concentration of 0.1% and then 100 μl of the reaction mixture was transferred to a capture ELISA plate and incubated overnight at 4° C. Detection of the cleavage product was performed using a standard sandwich ELISA assay and quantified using a six point standard curve.

| IC50 [nM] | Molecule |
| --- | --- |
| 250 to 500 | O=S(=O)(c1ccc(Cl)cc1)N1C2CCCC1c1cnc3cc(-c4ccccc4)nn3c1C2 (stereo not shown) [Example 63, 16-(4-Chloro-benzenesulfonyl)-7-phenyl-4,8,9,16-tetraaza-tetracyclo-[10,3,1,0^2,10,0^5,9]-hexadeca-2(10),3,5,7-tetraene] |
| < 100 | O=S(=O)(c1ccc(Cl)cc1)N1C2CCCC1c1c(C(F)F)n[nH]c1C2 (stereo not shown) [12-(4-Chloro-benzenesulfonyl)-3-difluoromethyl-4,5,12-triaza-tricyclo[6.3.1.0^2,6]dodeca-2(6),3-diene] |
| 250 to 500 | O=S(=O)(c1ccc(Cl)cc1)N1C2CCCC1c1cnn(C3CCCCC3)c1C2 (stereo not shown) [Example 66, 12-(4-Chloro-benzenesulfonyl)-5-cyclohexyl-4,5,12-triaza-tricyclo[6.3.1.0^2,6]dodeca-2(6),3-diene] |
| < 100 | Cc1n[nH]c2c1C1CCCC(C2)N1S(=O)(=O)c1ccc(Cl)cc1 (stereo not shown) [12-(4-Chloro-benzenesulfonyl)-3-methyl-4,5,12-triaza-tricyclo[6.3.1.0^2,6]dodeca-2(6),3-diene] |
| < 100 | O=S(=O)(c1ccc(Cl)s1)N1C2CCCC1c1cn[nH]c1C2 (stereo not shown) [Example 8, 12-(5-Chloro-thiophene-2-sulfonyl)-4,5,12-triaza-tricyclo[6.3.1.0^2,6]dodeca-2(6),3-diene] |
| < 100 | O=S(=O)(c1ccc(Cl)cc1)N1C2CCCC1C(O)c1[nH]ncc12 (stereo not shown) [Example 36, 12-(4-Chloro-benzenesulfonyl)-4,5,12-triaza-tricyclo[6.3.1.0^2,6]dodeca-2(6),3-dien-7-ol] |
| < 100 | CC(=O)OC(C)(C)C(=O)n1cc2c(n1)CC1CCCC2N1S(=O)(=O)c1ccc(Cl)cc1 (stereo not shown) [Example 85, Acetic acid 2-[12-(4-chloro-benzenesulfonyl)-4,5,12-triaza-tricyclo[6.3.1.0^2,6]dodeca-2,5-dien-4-yl]-1,1-dimethyl-2-oxo-ethyl ester] |
| 250 to 500 | C=CCOC(=O)n1cc2c(n1)CC1CCCC2N1S(=O)(=O)c1ccc(Cl)cc1 (stereo not shown) [Example 86, 12-(4-Chloro-benzenesulfonyl)-4,5,12-triaza-tricyclo[6.3.1.0^2,6]dodeca-2,5-diene-4-carboxylic acid allyl ester] |
| 250 to 500 | O=S(=O)(c1ccc(Cl)cc1)N1C2CCCC1c1c(Cl)n[nH]c1C2 (stereo not shown) [Example 91, 3-Chloro-12-(4-chloro-benzenesulfonyl)-4,5,12-triaza-tricyclo[6.3.1.0^2,6]dodeca-2(6),3-diene] |
| < 100 | O=S(=O)(c1ccc(Cl)cc1)N1C2CCC1c1cn[nH]c1C2 (stereo not shown) [Example 79, 11-(4-Chloro-benzenesulfonyl)-4,5,11-triaza-tricyclo[6.3.1.0^2,6]undeca-2(6),3-diene] |
| < 100 | Nc1n[nH]c2c1C1CCCC(C2)N1S(=O)(=O)c1ccc(Cl)cc1 (stereo not shown) [Example 94, 12-(4-Chloro-benzenesulfonyl)-4,5,12-triaza-tricyclo[6.3.1.0^2,6]dodeca-2(6),3-dien-3-ylamine] |
| < 100 | Nc1n[nH]c2c1C1CCCC(C2)N1S(=O)(=O)c1ccc(Cl)cc1 (stereo not shown) [Example 97, 12-(4-Chloro-benzenesulfonyl)-4,5,12-triaza-tricyclo[6.3.1.0^2,6]dodeca-2(6),3-dien-3-ylamine] |
| 100 to 250 | O=S(=O)(c1ccc(Cl)cc1)N1C2CCCC1c1cnc3c(-c4ccccc4)cnn3c1C2 (stereo not shown) [Example 62, 16-(4-Chloro-benzenesulfonyl)-6-phenyl-4,8,9,16-tetraaza-tetracyclo-[10,3,1,0^2,10,0^5,9]-hexadeca-2(10),3,5,7-tetraene] |
| 100 to 250 | Nc1ncc2c(n1)CC1CCCC2N1S(=O)(=O)c1ccc(Cl)cc1 (stereo not shown) [Example 87, 13-(4-Chloro-benzenesulfonyl)-4,6,13-triaza-tricyclo[7.3.1.0^2,7]trideca-2(7),3,5-trien-5-ylamine] |
| 100 to 250 | O=S(=O)(c1ccc(Cl)cc1)N1C2CCCC1c1c(C(F)(F)F)n[nH]c1C2 (stereo not shown) [Example 89, 12-(4-Chloro-benzenesulfonyl)-3-trifluoromethyl-4,5,12-triaza-tricyclo-[6.3.1.0^2,6]dodeca-2(6),3-diene] |
| < 100 | CC(C)C(=O)n1cc2c(n1)CC1CCCC2N1S(=O)(=O)c1ccc(Cl)cc1 (stereo not shown) [Example 84, 1-[12-(4-Chloro-benzenesulfonyl)-4,5,12-triaza-tricyclo[6.3.1.0^2,6]dodeca-2,5-dien-4-yl]-2-methyl-propan-1-one] |
| < 100 | CCC1c2[nH]ncc2C2CCCC1N2S(=O)(=O)c1ccc(Cl)cc1 (stereo not shown) [Example 14, 12-(4-Chloro-benzenesulfonyl)-7-ethyl-4,5,12-triaza-tricyclo[6.3.1.0^2,6]dodeca-2(6),3-diene] |
| < 100 | O=S(=O)(c1ccc(Cl)cc1)N1C2CCCC1c1c(C(F)(F)F)n[nH]c1C2 (stereo not shown) [Example 82, 12-(4-Chloro-benzenesulfonyl)-3-trifluoromethyl-4,5,12-triaza-tricyclo-[6.3.1.0^2,6]dodeca-2(6),3-diene] |
| 250 to 500 | Cn1ncc2c1CC1CCCC2N1S(=O)(=O)c1ccc(Cl)cc1 (stereo not shown) [Example 53, 12-(4-Chloro-benzenesulfonyl)-5-methyl-4,5,12-triaza-tricyclo[6.3.1.0^2,6]dodeca-2(6),3-diene] |
| < 100 | CC1c2[nH]ncc2C2CCCC1N2S(=O)(=O)c1ccc(Cl)cc1 (stereo not shown) [Example 11, 12-(4-Chloro-benzenesulfonyl)-7-methyl-4,5,12-triaza-tricyclo[6.3.1.0^2,6]dodeca-2(6),3-diene] |
| < 100 | CC(=O)n1cc2c(n1)CC1CCCC2N1S(=O)(=O)c1ccc(Cl)cc1 (stereo not shown) [Example 83, 1-[12-(4-Chloro-benzenesulfonyl)-4,5,12-triaza-tricyclo[6.3.1.0^2,6]dodeca-2,5-dien-4-yl]-ethanone] |

| Molecule | IC50 [nM] |
| --- | --- |
| N-[12-(4-Chloro-benzenesulfonyl)-4,5,12-triaza-tricyclo[6.3.1.0^2,6]dodeca-2(6),3-dien-7-yl]-acetamide [Example 98] | < 100 |
